Test results reported in ChEMBL document CHEMBL1201862, “PubChem BioAssay data set” (2004).
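The compound was tested at five concentrations on cells cultured in 96-well plates, with a 48-hour exposure period. The concentration for 50% growth inhibition is given as GI50.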 Activity calls are given as the source filed them. Cut-off read from the data, not from the text of the source: active = GI50 up to about 1.1 µM and inactive = higher. Residues, ends and D or L forms follow the SMILES beside them. *: point of attachment. Cbz = O=C(OCc1ccccc1)*

Legend:
Experiment in all cases: NCI anticancer screen, dose series, 48 h
[1] = system: IGROV-1
[2] = system: RXF 393
[3] = system: Malme-3M
[4] = system: SK-MEL-28
[5] = system: A549
[6] = system: K562
[7] = system: COLO 205
[8] = system: SF-539
[9] = system: UACC-62
[10] = system: NCI-H23
[11] = system: OVCAR-5
[12] = system: NCI-H226
[13] = system: HOP-62
[14] = system: NCI-H460
[15] = system: SNB-19
[16] = system: TK-10
[17] = system: KM12
[18] = system: U-251
[19] = system: CAKI-1
[20] = system: A498

Measured: GI50

Nc1nc(-c2ccco2)cc(-c2ccc(CO)o2)n1
inactive: [1] > 100 µM | [2] > 100 µM | [3] > 100 µM | [4] > 100 µM | [5] > 100 µM | [6] > 100 µM | [7] > 100 µM | [8] > 100 µM | [9] > 100 µM | [10] > 100 µM | [11] > 100 µM | [12] 54.3 µM | [13] > 100 µM | [14] > 100 µM | [15] 65.5 µM | [16] > 100 µM | [17] > 100 µM

COc1ccc2oc(=O)c(-c3csc(C)n3)cc2c1
inactive: [1] 49.4 µM | [18] 23 µM | [2] 30.5 µM | [19] > 100 µM | [4] > 100 µM | [5] > 100 µM | [6] > 100 µM | [7] > 100 µM | [8] 22.2 µM | [9] 22.9 µM | [11] > 100 µM | [12] 29.2 µM | [13] 31 µM | [14] > 100 µM | [15] 28.8 µM | [16] 26 µM | [17] > 100 µM

COc1ccc(/C=C2/CCS(=O)(=O)c3ccc(C)cc3C2=O)cc1OC
inactive: [1] 6.4 µM | [18] 12.8 µM | [2] 12.9 µM | [19] 17.2 µM | [4] 17.2 µM | [5] 25.9 µM | [6] 24.8 µM | [7] 14.2 µM | [8] 14.6 µM | [9] 5.97 µM | [10] 12.5 µM | [11] 27.5 µM | [12] 14.3 µM | [13] 28.9 µM | [14] 7.74 µM | [15] 14.1 µM | [16] 13.6 µM | [17] 11 µM

O=C1C[C@@H]2[C@@H](c3ccccc3)[C@@H]3C(=O)c4ccccc4NC(=O)[C@H]3[C@]2(O)c2ccccc2N1
inactive: [1] > 100 µM | [18] > 100 µM | [2] > 100 µM | [3] > 100 µM | [4] > 100 µM | [5] > 100 µM | [6] > 100 µM | [7] > 100 µM | [9] > 100 µM | [10] > 100 µM | [11] > 100 µM | [12] > 100 µM | [13] > 100 µM | [14] > 100 µM | [15] > 100 µM | [16] > 100 µM | [17] > 100 µM

CCN(CC)CCNc1c(OC)cc(C)c2sc3ccccc3c(=O)c12
inactive: [1] 7.69 µM | [18] 4.34 µM | [2] 10.1 µM | [19] 7.96 µM | [3] 2.13 µM | [4] 1.92 µM | [5] 4.31 µM | [6] 1.71 µM | [7] 2.06 µM | [8] 10.6 µM | [9] 1.79 µM | [10] 14.5 µM | [11] 3.72 µM | [12] 3.4 µM | [13] 10.8 µM | [14] 4.5 µM | [15] 12.7 µM | [16] 8.59 µM | [17] 5.41 µM

CC(Cc1ccccc1)N(C)Cc1nc(C2CCC([N+](=O)[O-])O2)no1 (configuration not stated)
inactive: [1] 8.55 µM | [18] 10.2 µM | [2] 19 µM | [3] 11.9 µM | [4] 11.9 µM | [5] 12.1 µM | [7] 3.72 µM | [8] 3.32 µM | [9] 5.96 µM | [10] 5.18 µM | [11] 15.6 µM | [12] 16.9 µM | [13] 7.43 µM | [15] 12.2 µM | [16] 13.5 µM | [17] 4.55 µM

CNC(=S)Nc1ccc(OC)c2ccccc12
inactive: [1] > 10 µM | [18] > 10 µM | [19] > 10 µM | [3] > 10 µM | [4] > 10 µM | [5] > 10 µM | [6] > 10 µM | [7] > 10 µM | [8] > 10 µM | [9] > 10 µM | [10] > 10 µM | [11] > 10 µM | [13] > 10 µM | [15] > 10 µM | [16] > 10 µM | [17] > 10 µM

CC1CCc2c(sc3ncnc(N/N=C/c4ccc(Cl)c(Cl)c4)c23)C1 (configuration not stated)
inactive: [1] 37.2 µM | [18] 5.2 µM | [2] 20.9 µM | [19] 26.2 µM | [3] 31.2 µM | [4] 21.2 µM | [5] 4.13 µM | [6] 4.4 µM | [7] 6.17 µM | [8] 21.7 µM | [9] 18.2 µM | [10] 13.2 µM | [11] 32.7 µM | [12] 16.4 µM | [13] 25.2 µM | [14] 7.4 µM | [15] 17.5 µM | [16] 23.7 µM

O=C1CCCC/C1=C\c1ccc(Br)cc1
inactive: [1] 19.7 µM | [18] 2.99 µM | [19] 17 µM | [3] 7.73 µM | [4] 13.7 µM | [5] 22.4 µM | [6] 4.33 µM | [7] 17.6 µM | [8] 19.9 µM | [9] 6.61 µM | [10] 16.2 µM | [11] > 10 µM | [13] 20.7 µM | [14] 35.5 µM | [15] 3.69 µM | [16] 16.7 µM | [17] 2.42 µM

CCCn1c(SCCSc2c3ccccc3c(-c3nc(F)nc(F)n3)n2CCC)c2ccccc2c1-c1nc(F)nc(F)n1
inactive: [18] > 100 µM | [2] > 100 µM | [19] > 100 µM | [3] > 100 µM | [4] > 100 µM | [5] > 100 µM | [6] > 100 µM | [7] 38 µM | [8] 38.6 µM | [9] > 100 µM | [10] > 100 µM | [11] > 100 µM | [13] > 100 µM | [14] > 100 µM | [15] > 100 µM | [16] > 100 µM | [17] > 100 µM

O=C(C=C1SCCS1)/C=C\c1ccc(Cl)cc1
inactive: [1] > 100 µM | [20] > 100 µM | [19] > 100 µM | [3] > 100 µM | [4] > 100 µM | [5] > 100 µM | [6] 49.5 µM | [7] > 100 µM | [8] > 100 µM | [9] 99.8 µM | [10] > 100 µM | [12] 83.2 µM | [13] > 100 µM | [15] > 100 µM | [16] 97.5 µM | [17] 87.1 µM

Cn1c(=O)c2ccc(-c3ccc(Br)cc3)nc2n(C)c1=O
inactive: [1] > 100 µM | [18] > 100 µM | [20] > 100 µM | [3] > 100 µM | [4] > 100 µM | [5] > 100 µM | [6] > 100 µM | [7] > 100 µM | [8] > 100 µM | [9] > 100 µM | [10] 51.2 µM | [11] > 100 µM | [12] > 100 µM | [13] > 100 µM | [14] > 100 µM | [15] > 100 µM | [16] 49.5 µM | [17] > 100 µM

C[C@@H]1C[C@](O)([C@@H](C)Cl)C(=O)O[C@@H]2CCN3CC=C(COC(=O)[C@]1(C)O)[C@H]23
inactive: [1] > 100 µM | [18] > 100 µM | [20] > 100 µM | [19] > 100 µM | [4] > 100 µM | [5] > 100 µM | [6] > 100 µM | [7] > 100 µM | [8] > 100 µM | [9] > 100 µM | [10] > 10 µM | [11] > 100 µM | [12] > 100 µM | [13] > 100 µM | [14] > 10 µM | [15] > 10 µM | [16] > 100 µM | [17] > 100 µM

[N-]=[N+]=NC(CCl)c1cn([C@H]2C[C@H](O)[C@@H](CO)O2)c(=O)[nH]c1=O (some centres not stated)
inactive: [1] > 100 µM | [18] > 100 µM | [2] > 100 µM | [19] > 100 µM | [3] > 100 µM | [4] > 100 µM | [5] > 100 µM | [6] > 100 µM | [7] > 100 µM | [8] > 100 µM | [9] > 100 µM | [10] > 100 µM | [11] > 100 µM | [12] > 100 µM | [13] > 100 µM | [14] > 100 µM | [15] > 100 µM | [16] > 100 µM | [17] > 100 µM

CC(NC(=O)C(NC(=O)OCc1ccccc1)C(C)C)C(=O)NCC(=O)O (stereo not drawn) (Cbz-Val-Ala-Gly-OH; configuration not given here)
inactive: [1] > 100 µM | [18] > 100 µM | [2] > 100 µM | [19] > 100 µM | [3] > 100 µM | [4] > 100 µM | [5] > 100 µM | [6] > 100 µM | [7] > 100 µM | [8] > 100 µM | [9] > 100 µM | [10] > 100 µM | [11] > 100 µM | [12] > 100 µM | [13] > 100 µM | [14] > 100 µM | [15] > 100 µM | [16] > 100 µM | [17] > 100 µM
